Reference: publication PMC8055447 (Journal of medicinal chemistry, 2019)

Legend:
[1] = tested on: EV-D68 viral capsid protein VP1 expression; assay: Immunofluorescence imaging of viral capsid protein VP1 in infected RD cells; format: cell-based; conditions: 9 hpi; for VP1 protein expression (immunofluorescence imaging): 1 μM, US/KY/14-18953, MOI = 1
[2] = tested on: EV-D68 viral capsid protein VP1 expression; assay: Western blot of viral capsid protein VP1 in infected RD cells; format: cell-based; conditions: 9 hpi, US/KY/14-18953, MOI = 1
sodium channels = conditions: from 2 μM to 50 μM, rat DRG neurons, overnight incubation, veratridine 30 μM
[3] = tested on: EV-D68 US/KY/14-18953 virus; assay: Viral CPE assay, EV-D68 US/KY/14-18953 in RD cells; format: cell-based, enterovirus D68 (EV-D68); conditions: EV-D68 US/KY/14-18953, RD cells

SMILES | VP1 protein expression (immunofluorescence imaging) [1] | VP1 expression (western blot) ([2]; 1 μM) | inhibition of sodium current conductance (sodium channels) | SI (selectivity index, CC50/EC50) [3] | fluorescent signal of VP1 (immunofluorescence imaging) ([1]; 3 μM, US/KY/14-18953, MOI = 1, vs DMSO control) | VP1 expression (western blot) ([2]; 3 μM)
CN(C)CCNC(=O)c1cc(-c2ccccc2)nc2ccccc12 [Compound 10a, N-[2-(dimethylamino)ethyl]-2-phenylquinoline-4-carboxamide] | completely blocked | completely blocked | minimal to no effect |  |  | 
O=C(NCCN1CCCC1)c1cc(-c2cccs2)nc2ccccc12 [Compound 12c, N-[2-(pyrrolidin-1-yl)ethyl]-2-(thiophen-2-yl)quinoline-4-carboxamide] | completely blocked | completely blocked |  | > 600 |  | 
CN(C)CCNC(=O)c1cc(-c2cccs2)nc2ccccc12 [Compound 12a, N-[2-(dimethylamino)ethyl]-2-(thiophen-2-yl)quinoline-4-carboxamide] | completely blocked | completely blocked |  | > 600 |  | 
CCCCOc1cc(C(=O)NCCN(CC)CC)c2ccccc2n1 [Dibucaine, dibucaine, reference compound] |  |  |  |  | significantly reduced | nearly completely inhibited
